From patent US20230348564A1, “ANTI-CANCER PROTEINS” (UNICHEM LABORATORIES LTD, priority 2020, published 2023)

How the values were obtained:
Glioblastoma (LN-18) = test: cytotoxicity in Brain Tumor Cell lines by MTT assay; type: cell-based, Human; details: 0.1 Mm-100 μM, 72 h
Experimental: (§1) The SEQ ID NO. […] Untreated cells were used as control. […] Cells were incubated for 3 h at 37° C.

Neuroblastoma (SH-SY5Y) = test: as above; type: cell-based, Human; details: 0.1 Mm-100 μM, 72 h
Experimental: as §1

[1] = tested on: PANC-1 (Human pancreatic epitheloid carcinoma); test: MTT cytotoxicity assay; details: SEQ ID NO. 2 80 μg/ml, doxorubicin 75 μM; 48h
Experimental: (§2) All the cancer cell lines were procured from National Centre for Cell Science, Pune (India). Cell lines were maintained under conditions as mentioned in Table 23. The cell lines were sub-cultured by trypsinization followed by splitting the cell suspension into fresh flasks and supplementing with fresh culture medium.
(§3) All the cell lines were grown in specified media at 37° C. with 95% Humidity and 5% CO2.
(§4) The cells were trypsinized, counted by Trypan blue method in Neuebauer's Chamber and plated in wells of flat bottom 96-well plate at the density corresponding to 10×10^3 cells/well/200 μL medium.
(§5) Following overnight incubation, the media in the plate was replenished with 180 μL/well and then the cells were treated with 20 μL of each test item at concentrations ranging from 2.5 μg/mL-80 μg/mL in triplicates, so that the total volume in each well is 200 μL.
(§6) The untreated cells served as negative control. The cells were incubated with the test items or positive control for a time period of 48h. Following incubation, the cell cytotoxicity was estimated using MTT assay. Absorbance was measured at 540 nm. The percentage cytotoxicity corresponding to each treatment was calculated using the formula:
(§7) % Cytotoxicity=(1−X/R)*100
(§8) Where X=absorbance of wells corresponding to treated cells R=absorbance of untreated cells (cells maintained in growth medium only)
(§9) IC50 value was calculated using Graph-Pad Prism version 4.01 software.

[2] = tested on: PBMCs (Peripheral blood mononuclear cells); test: MTT cytotoxicity assay; details: SEQ ID NO. 2 80 μg/ml, doxorubicin 75 μM; 48h
Experimental: as §2, §3, §4, §5, §6, §7, §8, §9

[3] = tested on: MCF-7 (Human breast adenocarcinoma); test: MTT cytotoxicity assay; details: SEQ ID NO. 2 80 μg/ml, doxorubicin 75 μM; 48h
Experimental: as §2, §3, §4, §5, §6, §7, §8, §9

[4] = tested on: MIA PaCa-2 (Human pancreatic carcinoma); test: MTT cytotoxicity assay; details: SEQ ID NO. 2 80 μg/ml, doxorubicin 75 μM; 48h
Experimental: as §2, §3, §4, §5, §6, §7, §8, §9

[5] = tested on: T24 (Human Bladder Cancer); test: MTT cytotoxicity assay; details: SEQ ID NO. 2 80 μg/ml, doxorubicin 75 μM; 48h
Experimental: as §2, §3, §4, §5, §6, §7, §8, §9

[6] = tested on: T-47D (Human mammary gland ductal carcinoma); test: MTT cytotoxicity assay; details: SEQ ID NO. 2 80 μg/ml, doxorubicin 75 μM; 48h
Experimental: as §2, §3, §4, §5, §6, §7, §8, §9

[7] = tested on: T24 (Urinary bladder/transitional cell carcinoma); test: Xenograft study; type: in vivo, mice; details: IP
Description: (§10) The Xenograft models used were HT-29, KB, PA-1, MCF-7, PANC-1, T24 and MDA-MB-231. The basic study design for the Xenograft study was as follows: • 1. Cell maintenance and cell suspension preparation • 2. Aseptic injection of tumor cell suspension in the donor animal • 3. Randomization of animals in respective groups • 4. IP dosing of test items in predetermined doses • 5. IP administration of standard • 6. After completion of dosing period. • 7. The Tumor volume recording weekly twice while body weight and clinical signs daily.

[8] = tested on: PA-1 (Ovary teratocarcinoma); test: Xenograft study; type: in vivo, mice; details: PA-1 xenograft, IP
Description: as §10

[9] = tested on: MDA-MB-231 (Mammary gland/breast adenocarcinoma); test: Xenograft study; type: in vivo, mice; details: MDA-MB-231 xenograft, IP
Description: as §10

KB (Cervical cancer) = test: Xenograft study; type: in vivo, mice; details: IP
Description: as §10

MCF-7 (Breast cancer) = test: Xenograft study; type: in vivo, mice; details: MCF-7 xenograft, IP
Description: as §10

MDA-MB-231 = test: Cell cycle analysis (PI stain); type: cell-based, Human; details: 24 h
Experimental: The cell lines were maintained in DMEM+10% FBS (heat inactivated) at 37° C. with 5% CO2, and 95% humidity. Antibiotics Penicillin (100 U/mL) and Streptomycin (100 μg/mL) were added to the medium.
The stock solution of recombinant lectin having the amino acid sequence of SEQ ID NO. […] Doxorubicin was used as positive control and stock solution was prepared in DMSO.
Cells were counted using hemocytometer and plated in culture plates at density of 0.5×10^6 cells/well in DMEM+10% FBS in 6-well plates. Cells were incubated overnight to allow the cell recovery and exponential growth. Following overnight incubation, cells were sera starved in DMEM+1% FBS for 4 h. […] Untreated cells were included as Control group for test item. Cells treated with Doxorubicin were included as Positive Control group. DMSO treated cells were included as control group for Doxorubicin. After treatment, cells were incubated for a time period of 24 h. Following incubation, the pro-apoptotic effect by cell cycle was determined as follows: Cell cycle reagent contains PI stain, which stains DNA of cells in different phases of cell cycle; Sub(G0/G1), G1, S, G2 and M. Cells in Sub(G0/G1) phase correspond to apoptotic cells.
Cells were gently harvested into pre-labeled centrifuge tubes and centrifuged at 450 g for 5 min, RT (low brake). The supernatants were removed carefully (not to touch the pellet) and discarded. 1 mL of 1×PBS was added to the pellet and resuspended gently to make homogenous suspension. Cells were centrifuged at 450 g for 5 min, RT (low brake) (washing step). The supernatant was carefully removed leaving behind approx 100 μL of PBS. Cells were resuspended gently yet thoroughly in residual PBS. Ice-cold 70% ethanol (300 μLI) was added drop-wise into cells in each tube while vortexing at low speed (fixation step). Cells were stored at 4° C. for 24 h prior to staining.
Ethanol fixed cells were centrifuged at 450 g for 5 min, RT (low brake). The supernatant was carefully removed (not to touch the pellet) and discarded. (The pellet might not be visible but makes a thin film on surface of tube). 1 mL of 1×PBS was added into pellet and resuspended gently. Cells were incubated for 1 min at RT. Cells were centrifuged at 450 g for 5 min, RT (low brake) (washing step). The supernatant was removed carefully leaving behind approx 20 μL-50 μL of PBS. 200 μL of Cell Cycle reagent was added into each tube.
Cells were resuspended gently, mixed and were incubated for 30 min, RT, Dark. The stained samples were transferred into 96-well plates and acquired on flow cytometer (Guava technologies). Percentage of cells in Sub (G0/G1) phase were determined. Fold increase in apoptotic cells (treated with Test Items) was determined as compared to Control (untreated cells).

## COc1cccc2c1C(=O)c1c(O)c3c(c(O)c1C2=O)C[C@@](O)(C(=O)CO)C[C@@H]3O[C@H]1C[C@H](N)[C@H](O)[C@H](C)O1 [Doxorubicin, reference compound]
Glioblastoma (LN-18)
  % of cytotoxicity: 6.5%-47.7%
Neuroblastoma (SH-SY5Y)
  % of cytotoxicity: 21.7%-61.7%
[1]
  Cytotoxicity at highest concentration tested: 65.1%
[2]
  Cytotoxicity at highest concentration tested: 32.0%
[3]
  Cytotoxicity at highest concentration tested: 64.9%
[4]
  Cytotoxicity at highest concentration tested: 63.9%
[5]
  Cytotoxicity at highest concentration tested: 54.4%
[6]
  Cytotoxicity at highest concentration tested: 51.1%
[7]
  Maximum Tumor Growth Inhibition (%): 59.07%
  Tumor Volume (mm^3) (Mean ± SEM): 366.32 ± 34.28 mm^3
[8]
  Maximum Tumor Growth Inhibition (%): 84.48%
  Tumor Volume (mm^3) (Mean ± SEM): 631 ± 87 mm^3
[9]
  Maximum Tumor Growth Inhibition (%): 42.12%
  Tumor Volume (mm^3) (Mean ± SEM): 808.47 ± 178.59 mm^3
KB (Cervical cancer)
  Maximum Tumor Growth Inhibition (%): 64.60%
  Tumor Volume (mm^3) (Mean ± SEM): 616 ± 118 mm^3
MCF-7 (Breast cancer)
  Maximum Tumor Growth Inhibition (%): 65.23%
  Tumor Volume (mm^3) (Mean ± SEM): 771 ± 65 mm^3
MDA-MB-231; 10 μM
  % Population of cells, Apoptotic Sub(G0/G1): 11.09%
  % Population of cells, G0/G1: 40.26%
  % Population of cells, G2/M: 18.52%
  % Population of cells, S: 22.70%
MDA-MB-231; 100 μM
  % Population of cells, Apoptotic Sub(G0/G1): 92.02%
  % Population of cells, G0/G1: 5.64%
  % Population of cells, G2/M: 0.83%
  % Population of cells, S: 1.17%
